Where “and” joins values, the source holds several entries; their conditions need not be identical. Equal values may be shown once. Read-outs that look alike come from different tables or passages of the source.
Columns and labels:
[1] = Speciation simulation of MNZ under sea water conditions; details: pH = 8.1, I = 0.7 mol L^-1, t = 25 °C
Description: In order to assess the relevance of the Ca^2+ complex in sea water conditions, the average concentrations of MNZ (L), Ca^2+, Mg^2+, and other divalent cations such as Cu^2+ and Zn^2+, were considered. With the use of the thermodynamic data here determined, it is possible to carry out simulations in sea water conditions. More in detail, the protonation constants of L and the stability constants of Ca^2+-L complex species were calculated by data in Table 3 at I = 0.7 mol L^−1, i.e., the mean ionic strength of sea water. For Cu^2+-L and Zn^2+-L complexes, data of formation constants determined by us and not yet published were used. […] Formation constant values of Cu^2+- and Zn^2+-L species under sea water conditions, belonging to our unpublished study, are summarized in the Supplementary Materials.
(§1) The protonation constant of MNZ (L), formation constant values of Ca^2+(M)-MNZ (L), and titration parameters (analytical concentration of the reagents, standard potential E^0, junction potential) were determined by using BSTAC and STACO programs. LIANA program has provided the parameters characterizing the dependence of the protonation and formation constant values on the temperature and ionic strength. More details on software are present in ref. [59]. ^1H NMR data were processed by HypNMR software, which allows for calculating protonation and formation constant values and the individual chemical shift of species through the observed signals and assuming fast mutual exchange in the NMR time scale. UV-Vis data are processed by the HypSpec program, which allows refining of the protonation and formation constant as well as the molar absorption coefficient values (ε) of the species. The speciation diagrams and the formation percentage of the species are determined by the Hyss program.

[2] = Dependence of Ca^2+-MNZ formation constant on ionic strength (Debye-Hückel type equation); type: physicochemical; details: Ca + L + H = CaLH, t = 25 °C, NaCl
Text: (§2) The choice to carry out the experiments at various ionic strengths made it possible to study the dependence of the values of the protonation and formation constants on the ionic strength, expressed by a Debye-Hückel type equation, reported below: (5) logβ=logβ^T − 0.51 z* I/1 + 1.5 I + CI where β^T is the protonation constant at infinite dilution, z* is the parameter that refers to the charges present in the solution corresponding to ∑z^2reagents − ∑z^2products, and C refers to the empirical parameter that depends on the stoichiometric coefficients and on the charges. Using Equation (5) and equilibrium constants at various ionic strength values, the formation constants extrapolated to I = 0 mol L^−1, together with the empirical parameter C, were obtained.
(§3) The protonation constant of MNZ (L), formation constant values of Ca^2+(M)-MNZ (L), and titration parameters (analytical concentration of the reagents, standard potential E^0, junction potential) were determined by using BSTAC and STACO programs. LIANA program has provided the parameters characterizing the dependence of the protonation and formation constant values on the temperature and ionic strength. […] The speciation diagrams and the formation percentage of the species are determined by the Hyss program.

[3] = Dependence of Ca^2+-MNZ formation constant on temperature (van't Hoff equation), thermodynamic parameters; type: physicochemical; details: Ca + LH = CaLH; t = 298.15 K, I = 0.15 mol L^-1 NaCl
Description: The protonation and formation constants values acquired at the three different temperatures of 15, 25, and 37 °C, listed in Table 1, were used to study their dependence on temperature, as already shown for several systems. The data obtained by the potentiometric measurements were analyzed using the following van’t Hoff equation:logβT = logβθ + ΔH^0(1/θ − 1/T) R ln 10(6) where logβT is the stability constant at a certain temperature (expressed in kelvin), while logβθ is the stability constant at t = 298.15 K, and R is the universal gas constant expressed as 8.314 J K^−1 mol^−1. Using the equation just reported, it was possible to calculate the protonation and formation enthalpies change values, together with Gibbs free energy and entropy changes.
as §1

[4] = Distribution diagram of Ca^2+-MNZ system vs pH; type: physicochemical; details: I = 0.15 mol L^-1, CL = 2 mmol L^-1, CCa = 1 mmol L^-1, 4 ≤ pH ≤ 10
Description: as §1

[5] = parameters: method as in PMID 23380153; details: 25 °C, I = 0.2 mol L^-1 in NaCl, water-ethanol (90:10, v/v), potentiometric titrations; cited from earlier work
[6] = Dependence of protonation constants on ionic strength (Debye-Hückel type equation); type: physicochemical; details: t = 25 °C, NaCl; for log^Tβ (constant at infinite dilution): extrapolated to I = 0 mol L^-1
Text: as §2, §1

[7] = UV-Vis spectrophotometric titrations: protonation constants of MNZ; type: physicochemical; details: t = 25 °C; for logβ UV: I = 0.15 mol L^-1
Description: (§4) As widely reported in the literature, the high ability of L to absorb in the UV range has often been used to determine quantitatively and qualitatively this antibiotic in waters. Various spectrophotometric titrations on solutions containing L and M-L mixtures were performed to investigate L spectral behavior and to confirm the protonation and formation constants values as well as the speciation model obtained by potentiometry, as already shown with other systems.
(§5) The spectrophotometric titrations were performed with a Varian Cary 50 UV-Vis spectrophotometer characterized by an optical fiber with a fixed 1 cm path length. The system was interfaced to a PC by the Varian Cary WinUV software. For all titrations, a Thermo-Fisher glass electrode was also used to record simultaneously the couple of data absorbance (A) and e.m.f. (mV) vs. volume of titrant (mL), for each titration point. The analyses were carried out in a thermostated cell, in which N2 was bubbled in solution to avoid CO2 and O2.
as §1

[8] = UV-Vis spectrophotometric titrations: formation constant of Ca^2+-MNZ species; type: physicochemical; details: Ca + L + H = CaLH; t = 25 °C, I = 0.15 mol L^-1
Description: as §4, §5
as §3, with “programs.” for “programs. LIANA program has provided the parameters characterizing the dependence of the protonation and formation constant values on the temperature and ionic strength.”

[9] = Distribution diagram of MNZ species vs pH; type: physicochemical; details: t = 25 °C, I = 0.15 mol L^-1, CL = 2 mmol L^-1, 4 ≤ pH ≤ 10
Description: as §1

[10] = parameters: method as in PMID 33975173; details: t = 25 °C, I = 0.1 mol L^-1 in NaClO4, spectrophotometry; cited from earlier work
[11] = parameters: method as in earlier work; details: t = 25 °C, I = 0.5 mol L^-1 in KCl, potentiometry; cited from earlier work
[12] = CL = 8·10^-10 mol L^-1, CZn = 1.5·10^-9 mol L^-1

percentage of LH species ([1]; CL = 8·10^-10 mol L^-1): 22% | percentage of CaLH species ([1]; CL = 8·10^-10 mol L^-1, CCa = 0.01 mol L^-1): 29% | percentage of CuL species ([1]; CL = 8·10^-10 mol L^-1, CCu = 4·10^-5 mol L^-1): 10% | percentage of ZnL species [1, 12]: 4% | percentage of ZnLOH species [1, 12]: 35% | C (empirical parameter for dependence on ionic strength, Equation (5)) [2]: 1.0(2) | log^Tβ (constant at infinite dilution) ([2]; extrapolated to I = 0 mol L^-1): 15.0(2) | TΔS [3]: -20 kJ/mol | ΔG [3]: -14.2 kJ/mol | ΔH [3]: -34 kJ mol^-1 and −34(8) kJ mol^-1 | maximum metal fraction of CaLH species ([4]; t = 25 °C): 0.4 | maximum metal fraction of CaLH species ([4]; t = 37 °C): over 0.1 | C (empirical parameter for dependence on ionic strength, Equation (5)) ([6]; L + 2H = LH2): 1.16(6) | log^Tβ (constant at infinite dilution) ([6]; L + 2H = LH2): 14.4(1) | C (empirical parameter for dependence on ionic strength, Equation (5)) ([6]; L + H = LH): 0.7(2) ^1 | log^Tβ (constant at infinite dilution) ([6]; L + H = LH): 12.0(3) ^1 | logβ UV ([7]; L + 2H = LH2): 14.20(6) | logβ UV ([7]; L + H = LH): 11.73(2) ^1 | logK2 (protonation constant) ([7]; UV spectrophotometry, I = 0.15 mol L^-1 in NaCl): 2.47 | logβ UV [8]: 14.17(2) | maximum ligand fraction of the mono-protonated species [9]: over 0.9
Compound: Cc1ncc([N+](=O)[O-])n1CCO [MNZ, 2-Methyl-5-nitroimidazole-1-ethanol]
logK1 (protonation constant) [5]: 18.1 | logK2 (protonation constant) [5]: 7.01 | logK3 (protonation constant) [5]: 2.64 | logK2 (protonation constant) [10]: 2.15 | logK2 (protonation constant) [11]: 2.68

From article PMC9457533, “Study on Metronidazole Acid-Base Behavior and Speciation with Ca^2+ for Potential Applications in Natural Waters” (Molecules, 2022)
